One test has as its system Sprague-Dawley rats. Briefly: Post-prandial blood glucose test after sucrose administration. Type of test: in vivo, rat. The settings on record: sucrose 2 g/kg, 1.0 mg/kg D-fagomine. How it is done:
The effect on postprandial blood glucose of both D-fagomine enriched extract from buckwheat and D-fagomine obtained chemoenzimatically following the procedure described in WO2008025826A1 was evaluated. Adult male Sprague-Dawley rats of 200-220 g body weight (Janvier, Le Genest-St-Isle, France) were housed in cages (n=2/cage) under controlled conditions of stable humidity (40-77%), and temperature (23° C.) with a 12-hour light/dark cycle. The rats were fed a standard diet (Panlab A04, Panlab, Barcelona, Spain) and given water ad libitum. To minimize circadian rhythm effects, rat manipulations were carried out in the morning. Handling and sacrificing of the animals were in full accordance with the European Union guidelines for the care and management of laboratory animals and the pertinent permission was obtained from the CSIC Subcommittee of Bioethical Issues. The authors further attest that all efforts were made to minimize the number of animals used and their suffering. The glucose test was performed after a 12 h food deprivation period. A solution of sucrose (2 g/kg body weight) together with the appropriate amount of the compound being tested was administered to the rats. […] Blood glucose concentration was measured by the enzyme electrode method using Elite blood glucose test strips and a blood glucose meter Ascensia ELITE XL both from Bayer Consumer Care AG (Basel, Switzerland). […]

In the next test the test system is Escherichia coli. Briefly: Adhesion of Escherichia coli to mucus (pig intestinal mucosa). Type of test: cell-based. To be noted: 10 mg/L D-fagomine. As for the experimental part: Adhesion to Mucus. Protocol
The strains of Escherichia coli used were obtained from the Bacterial Strain Collection of the Faculty of Veterinary Science at the Universitat Autònoma de Barcelona. Overnight, cultures of the bacterial strain were inoculated into flasks containing Luria medium (Liofilchem, Roseto degli Abruzzi, Italy) (3 mL) to facilitate the production of fimbriae. The strains were incubated at 37° C. for 24 h. Then, colonies were grown on Luria medium Agar plates and after 24 h of incubation, several dilutions were prepared in PBS (phosphate buffered saline, Sigma Aldrich, St Louis, Mo., USA) for each strain, down to a concentration of 1×10^7 CFU mL^−1.
The mucosa was obtained from intestinal segments of pigs, just after they were killed at a local slaughterhouse, and kept frozen until use. The mucosa preparation (1 mL) was defrosted, centrifuged and mixed with PBS (99 mL). Prior to each test, the concentration of mucine in the suspension was calculated by the Bradford method. Multiwell plates (Nunc®, Roskilde, Denmark) were treated with the mucosa suspension (2.5 mL) overnight at 4° C. […] Finally, the colony forming units from both the supernatant and mucosa were counted under an optical microscope after cultivating both fractions overnight.

A further test deals with alpha-glycosidase. The settings on record: Kato et al. 1997; cited from earlier work.
The subject of another test is lactase. The settings on record: Kato et al. 1997; cited from earlier work.
Test [1] deals with Streptozotocin-diabetic mice. The settings on record: Nojima et al. 1998; cited from earlier work.

Data on one compound can be found in patent US20130116282A1, “BUCKWHEAT EXTRACT ENRICHED IN D-FAGOMINE” (BIOGLANE, S.L.N.E., priority 2010, published 2013).

Each structure is given as a SMILES string.

With `OC[C@H]1NCC[C@@H](O)[C@@H]1O` [D-fagomine WO2008025826A1, (2R,3R,4R)-2-(hydroxymethyl)piperidine-3,4-diol], the “Increase in plasma glucose after sucrose administration” value with Sprague-Dawley rats was “lowered”. In addition, in the test on Escherichia coli, the “Agglutination of the microorganisms” value was “agglutinated” and the “Bacterial adhesion to the mucus” value is reported as “not detected”. Also, in the test with alpha-glycosidase, the alpha-glycosidase inhibition entry is listed as “weak inhibitor”. In the test with lactase, the lactase inhibition entry was “weak inhibitor”. Also, in test [1], the antihyperglycemic effect result was “antihyperglycemic effect”.
